The source of these data is article PMC11694131 (Haematologica, 2024).

The structures appear in SMILES notation. Read-outs that look alike come from different tables or passages of the source.

In one data set the test system is LOUCY. Kind of data set: CellTiter-Glo viability, LOUCY. Type of data set: cell-based. The settings on record: read-out: IC50, CellTiter-Glo.
The subject of the next data set is MOLT4. Kind of data set: CellTiter-Glo viability, MOLT4. The data set is classed as cell-based. The settings on record: read-out: IC50, CellTiter-Glo.
The next data set deals with PF-382. The experiment in a line: CellTiter-Glo viability, PF-382. The data set is classed as cell-based. The settings on record: read-out: IC50, CellTiter-Glo.
The test system of the next data set is CCRF-CEM. Kind of data set: CellTiter-Glo viability, CCRF-CEM. Type of data set: cell-based.
The subject of another data set is RS4;11. The experiment in a line: CellTiter-Glo viability, RS4. Type of data set: cell-based. The settings on record: for IC50: Homo sapiens, RS4-11, 24 h, read-out: IC50, CellTiter-Glo.
The subject of data set [1] is primary CLL cells cultured with or without NK Tert stroma. The experiment in a line: Primary CLL cells with or without NK Tert stroma, Annexin V / TMRM. The data set is classed as cell-based. The note with it: Homo sapiens, CLL cell.
Data set [2] deals with primary CLL cells co-cultured on HS-5 stromal cells. The experiment in a line: Primary CLL cells co-cultured on HS-5 stroma, Annexin V / TMRM. The data set is classed as cell-based, human. The settings on record: HS-5 co-culture 24 hr.
For another data set, the system named is platelets. The experiment in a line: 14-day repeat-dose non-GLP platelet toxicity study in dogs. Type of data set: in vivo, dog. The settings on record: oral once daily.
The test system of data set [3] is venetoclax-relapsed primary CLL cells. The experiment in a line: TMRM / Annexin V apoptosis assay, venetoclax-relapsed primary CLL cells. The data set is classed as cell-based. The settings on record: Homo sapiens, CLL cell, read-out: IC50, apoptosis (TMRM and Annexin V).
Data set [4] in a line: Single-dose dog PK and platelet toxicity study. The data set is classed as in vivo. The note with it: 25 mg/kg single oral dose.
Data set [5] deals with treatment-naïve primary CLL cells. Kind of data set: TMRM / Annexin V apoptosis assay, treatment-naïve primary CLL cells. The note with it: Homo sapiens, CLL cell, 18 h, read-out: IC50, apoptosis (TMRM and Annexin V). The data set is classed as cell-based.
The next data set is described as follows: in vitro. The note with it: human.
The test system of data set [6] is RS4;11 cells with WT BCL2. Kind of data set: TMRM / Annexin V staining, RS4. The settings on record: Homo sapiens, RS4-11, 72 h, read-out: IC50, TMRM / Annexin V. Type of data set: cell-based.
Data set [7] concerns OSU-CLL BCL2 knockout (KO) cells. The experiment in a line: CellTiter-Glo viability, OSU-CLL BCL2 KO. The settings on record: 72 hr, above 200 nM. The data set is classed as cell-based.
The next data set relates to RS4;11 WT BCL2 xenograft. Kind of data set: RS4. Type of data set: in vivo, mouse. The note with it: 6.25 mg/kg orally once daily for 28 days.
The next data set relates to OSU-CLL xenograft. Kind of data set: OSU-CLL xenograft. The data set is classed as in vivo, mouse. The note with it: 50 mg/kg daily oral gavage.
Where [8] appears, read: read-out: IC50, CLL cells co-cultured with NK Tert cells.
Setting [9] is: read-out: IC50, CLL cells without stromal protection.

Consider `Cc1c(-c2ccc(N3CCc4cccc(C(=O)Nc5nc6ccccc6s5)c4C3)nc2C(=O)O)cnn1CC12CC3CC(CC(C3)C1)C2` [A-1331852], for which the IC50 in the data set with LOUCY (LOUCY, 24 hr) was 130 nM; in the data set with MOLT4 (MOLT4, 24 hr), 5.5 nM; with PF-382 (PF-382, 24 hr) it was 46.6 nM; in the data set with CCRF-CEM (read-out: IC50, CellTiter-Glo, 24 hr), 13.9 nM. In addition, the “IC50, CellTiter-Glo” value in the data set on RS4;11 (RS4;11, 24 hr) is on record as “not effective”.
Regarding `CC1(C)CCC(c2ccc(Cl)cc2)=C(CN2CCN(c3ccc(C(=O)NS(=O)(=O)c4ccc(N[C@H](CCN5CCOCC5)CSc5ccccc5)c(S(=O)(=O)C(F)(F)F)c4)cc3)CC2)C1` [navitoclax], the IC50 in data set [1] (setting [8]) came to 16 nM; in data set [1] (setting [9]), 5.9 nM; in [3] it was 4.13 nM; in the data set with LOUCY (24 h), 47.4 nM; in [5], 10.1 nM; in the data set “in vitro” it was 170 nM. Also, the IC50 in the data set with MOLT4 (Homo sapiens, MOLT-4, 24 h) was 291 nM; in the data set with PF-382 (Homo sapiens, PF-382, 24 h), 379 nM; in the data set with CCRF-CEM (Homo sapiens, 24 h, read-out: IC50, CellTiter-Glo), 492 nM; with RS4;11, 42.1 nM. Further, the “effect of HS-5 stroma on sensitivity of CLL cells” value in [2] is on record as “does not alter the sensitivity”. The “dose at which platelet toxicity was induced” value in the data set on platelets is given as above 3 mg/kg. Moreover, the “maximum reduction in platelets” value in [4] is 97%.
For `CC1(C)CCC(CN2CCN(c3ccc(C(=O)NS(=O)(=O)c4ccc(NCC5CCOCC5)c([N+](=O)[O-])c4)c(Oc4cnc5[nH]ccc5c4)c3)CC2)=C(c2ccc(Cl)cc2)C1` [venetoclax], the IC50 in data set [1] (setting [8]) is 1.2 nM; in [1] (setting [9]), 0.908 nM; in [3] it was 16 nM; in the data set on LOUCY (24 h) it was 125 nM; in data set [6] it was 3.58 nM; in data set [5] it was 3.8 nM. Further, the IC50 in the data set “in vitro” came to 25000 nM; in the data set on RS4;11 it was 4.7 nM. Also, in data set [2], the “effect of HS-5 stroma on sensitivity of CLL cells” value was “does not alter the sensitivity”. Besides, the “maximum reduction in platelets” value in data set [4] is recorded as 6%. For the same compound, in [4], the “plasma persistence / clearance at 30 hr post treatment” value is “persisted in plasma”. For the same compound, the plateau of killing in data set [7] was 50%. Also, the median survival in the data set on RS4;11 WT BCL2 xenograft came out at 59 days. The “tumor volume upon stopping treatment” value in the data set with RS4;11 WT BCL2 xenograft was “relapsed and exhibited increased tumor growth”. Moreover, in the data set with OSU-CLL xenograft, the “platelet counts throughout treatment” value was “maintained similar platelet counts”. For the same compound, in the data set with OSU-CLL xenograft, the “survival compared to vehicle” value is listed as “significantly improved the survival”.
